Literature values as cited in patent publication US8017348B1, “Assay for Parkinson's Disease therapeutics” (Elan Pharma International Limited, priority 2005, dated 2011).

Tests used:
Conditions in all cases: at higher concentrations (25-50 uM); cited from earlier work
[1] = tested on: cAMP dependent protein kinase
3-PI-dependent kinase 1 = biological target: T1, 3-PI-dependent kinase 1 (Homo sapiens, UniProt O15530)
T1 sequence (O15530 1-556): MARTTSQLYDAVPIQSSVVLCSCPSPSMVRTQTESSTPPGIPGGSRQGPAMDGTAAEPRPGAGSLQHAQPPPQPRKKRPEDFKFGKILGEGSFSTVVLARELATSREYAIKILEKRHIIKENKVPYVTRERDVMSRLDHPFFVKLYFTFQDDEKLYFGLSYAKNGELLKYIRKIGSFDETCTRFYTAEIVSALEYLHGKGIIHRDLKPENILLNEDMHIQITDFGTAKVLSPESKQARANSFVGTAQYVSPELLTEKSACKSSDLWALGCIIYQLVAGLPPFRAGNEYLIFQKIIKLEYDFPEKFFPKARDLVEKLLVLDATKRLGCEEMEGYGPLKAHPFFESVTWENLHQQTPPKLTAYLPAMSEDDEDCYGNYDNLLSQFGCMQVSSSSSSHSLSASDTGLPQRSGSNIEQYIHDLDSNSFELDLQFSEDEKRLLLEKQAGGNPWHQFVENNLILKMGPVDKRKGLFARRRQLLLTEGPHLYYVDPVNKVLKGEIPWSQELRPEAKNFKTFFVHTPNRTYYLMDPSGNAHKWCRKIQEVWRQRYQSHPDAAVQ

aldehyde dehydrogenase = tested on: aldehyde dehydrogenase

Cc1ccc(S(=O)(=O)N[C@@H](Cc2ccccc2)C(=O)CCl)cc1 [TPCK]
inhibit: inhibition of cAMP dependent protein kinase [1] | inhibition of 3-PI-dependent kinase 1 (3-PI-dependent kinase 1) | inhibition of aldehyde dehydrogenase (aldehyde dehydrogenase)
